Source: patent publication US20080199422A1, “Method for the Treatment of Myelodysplastic Syndromes Using 1-Oxo-2-(2,6-Dioxopiperidin-3-Yl-)-4-Methylisoindoline” (CELGENE CORPORATION, priority 2004, published 2008)
Like-named read-outs stand apart in the source and are kept apart here.

Key:
[1] = test system: TNF-α production; conditions: human PBMC, cited from earlier work; for IC50: LPS, read-out: IC50 for inhibiting production of TNF-α following LPS-stimulation of PBMC
[2] = test system: MDS patients; test: Expanded clinical study, additional 16 MDS patients; assay type: in vivo, human
Excerpt: The clinical study was expanded with additional 16 MDS patients for at least eight weeks. According to the IPSS, 13 of these patients were categorized as low- or intermediate-1-risk patients and three patients were grouped as intermediate-2- or high-risk patients. According to the FAB classification, there were 11 patients with refractory anemia (RA) or RA with ringed sideroblasts (RARS), and five patients with RA with excess blasts (RAEB), RAEB in transformation (RAEB-T). The starting dose of 3-(4-amino-1-oxo-1,3-dihydro-isoindol-2-yl)-piperidine-2,6-dione was 25 mg daily for the first 13 patients and 10 mg daily for the remaining three patients. All patients receiving the starting dose of 25 mg required dose reduction by the completion of eight weeks therapy. Among these 16 patients who completed at least 8 weeks of monitoring, nine patients achieved an erythroid response as assessed by the International MDS Working Group Criteria. The erythroid responses consisted of transfusion independence in seven previously transfusion-dependent patients, a >2 g/dL rise in blood hemoglobin concentration in one patient in with transfusion-independent anemia, and a >50% decrease in RBC transfusion requirement in one transfusion-dependent patient. […] In addition, complete cytogenetic responses developed in five in eight patients with abnormal karyotypes at baseline. These five patients with complete cytogenetic responses all had the Del5q3 1-33 abnormality, which has been discovered to be a good prognostic factor for MDS. Indeed, all five patients who enrolled in this study with 5q-syndrome achieved a complete cytogenetic response and a major erythroid response. The study also indicated an association of this therapy with an increased apoptotic index for myelodysplastic progenitors and recovery of normal hematopoietic progenitor cells.

[3] = test system: MDS patients; test: Clinical study in MDS patients with transfusion-dependence or symptomatic anemia; assay type: in vivo, human
Description: Clinical studies were performed for the remitting potential of 3-(4-amino-1-oxo-1,3-dihydro-isoindol-2-yl)-piperidine-2,6-dione in MDS patients with red blood cell transfusion-dependence (>4 units/8 weeks) or symptomatic anemia (Hgb<10 g/dl). Patients received continuous treatment with 3-(4-amino-1-oxo-1,3-dihydro-isoindol-2-yl)-piperidine-2,6-dione at a oral dose of 25 mg daily. Responses were assessed according to IWG criteria after 16 weeks of treatments. Among 15 patients receiving the treatments, 11 patients were evaluable for toxicity, nine patients were evaluable for response (>8 wks therapy), and three patients discontinued the therapy prematurely (<2 weeks) due to cholecystitis, autoimmune hemolytic anemia, or patient refusal. Median age of the patients was 78 years ranging from 51 to 82 years. FAB types of the MDS patients include RA [4 patients], RARS [4 patients], RABB [6 patients], and RAEB-T [1 patient] with corresponding IPSS categories of Low/Int-1 in 11 patients and Int-2/High in four patients. Myelosuppression, which was characterized by higher than grade 3 common toxicity criteria or 50% decrease in leukocyte and platelet counts [9 patients], and grade 3 fatigue [1 patient], necessitated dose reduction to 10 mg in the initial ten patients. All subsequent patients initiated oral administrations with 10 mg daily. Grade 1, 2 drug-related adverse effects were limited to the 25 mg dose and included pruritus or itchy scalp [6 patients] and myalgia [1 patient]. Six (66%) of nine evaluable patients experienced hematologic benefit (dual lineage, 1 patient), including 6/7 (86%) patients with IPSS Low/Int-1. Hematologic responses included RBC transfusion-independence [4 patients], decrease in RBC transfusions of more than 50% [1 patient], increase in Hgb of more than 1.5 g [1 patient], and one minor platelet response (increase of more than 30,000/μL ). Among five patients evaluable for cytogenetic response, three patients achieved either a complete or partial (decrease in abnormal metaphases of more than 50%) remission. […] Correlation with changes in apoptotic index, angiogenic features (cellular/plasma VEGF, micro vessel density), cytokine generation, and proliferative fraction (Ki67) are in progress. […] Clinical benefit appears greatest in patients with low/intermediate-1 disease or the 5q-syndrome, associated with resolution of cytology dysplasia.

[4] = test system: TNF-α production; conditions: cited from earlier work
[5] = test system: MDS bone marrow progenitor formation; test: MDS vs normal bone marrow progenitor formation in pre-clinical models; assay type: cell-based
Excerpt: (§1) The pharmacological effects of 3-(4amino-1-oxo-1,3-dihydro-isoindol-2-yl)-piperidine-2,6-dione derive from its action as an inhibitor of cellular response to receptor-initiated trophic signals (e.g., IGF-1, VEGF, cyclooxygenase-2), and other activities. As a result, 3-(4-amino-1-oxo-1,3-dihydro-isoindol-2-yl)-piperidine-2,6-dione suppresses the generation of inflammatory cytokines, down-regulates adhesion molecules and apoptosis inhibitory proteins (e.g., cFLIP, cIAP), promotes sensitivity to death-receptor initiated programmed cell death, and suppresses angiogenic response.

[6] = test system: AML cells; test: Mitogenic response to VEGF in AML cells; assay type: cell-based; conditions: by extinguishing ligand-induced Akt-phosphorylation
Excerpt: as §1

[7] = test system: MDS patients; conditions: cited from earlier work
[8] = 25 mg daily, initial ten patients, necessitated dose reduction to 10 mg

In the case of `O=C1CCC(N2C(=O)c3ccccc3C2=O)C(=O)N1` (racemic) [Thalidomide, 2-(2,6-dioxo-3-piperidinyl)-1H-isoindole-1,3(2H)-dione, reference compound], the IC50 [1] is given as roughly 194 µM and the “IC50 for inhibiting production of TNF-α following LPS-stimulation of PBMC” value [1] is given as roughly 50.2 µg/mL.

For `Nc1cccc2c1CN(C1CCC(=O)NC1=O)C2=O` (stereo not drawn) [3-(4-amino-1-oxo-1,3-dihydro-isoindol-2-yl)-piperidine-2,6-dione], the “erythroid response (International MDS Working Group Criteria)” value ([2]; among 16 patients, at least 8 weeks, start 25 mg or 10 mg daily) was “nine”, the complete cytogenetic responses ([2]; in eight patients with abnormal karyotypes at baseline) was “five” and the major erythroid response ([2]; of 16 patients) was “eight”. For the same compound, the minor erythroid response ([2]; of 16 patients) was “one”, the minor platelet response ([2]; of 16 patients) was “One” and the “complete cytogenetic response and major erythroid response in 5q-syndrome” value ([2]; patients enrolled with 5q-syndrome) was “all five”. The transfusion independence ([2]; previously transfusion-dependent patients) was “seven”, the “patients requiring dose reduction by completion of eight weeks therapy” value ([2]; starting dose of 25 mg (first 13 patients)) was “All patients” and the “>50% decrease in RBC transfusion requirement” value ([2]; transfusion-dependent patient) was “one”. For the same compound, the “>2 g/dL rise in blood hemoglobin concentration” value ([2]; transfusion-independent anemia) was “one”, the tolerability ([3]; 10 mg continuous oral daily dose) was “well-tolerated with minimal myelosuppression” and the “grade 3 fatigue” value [3, 8] was 1 patient. For the same compound, the “myelosuppression (higher than grade 3 common toxicity criteria or 50% decrease in leukocyte and platelet counts)” value [3, 8] was 9 patients, the “Grade 1, 2 drug-related myalgia” value ([3]; 25 mg dose) was 1 patient and the “Grade 1, 2 drug-related pruritus or itchy scalp” value ([3]; 25 mg dose) was 6 patients. The “patients with hematologic benefit, IPSS Low/Int-1” value ([3]; 6/7 patients with IPSS Low/Int-1) was 86%, the “complete or partial cytogenetic remission (decrease in abnormal metaphases of more than 50%)” value ([3]; among five patients evaluable for cytogenetic response) was “three” and the RBC transfusion-independence ([3]; of nine evaluable patients) was 4 patients. The “decrease in RBC transfusions of more than 50%” value ([3]; of nine evaluable patients) was 1 patient, the “increase in Hgb of more than 1.5 g” value ([3]; of nine evaluable patients) was 1 patient and the “minor platelet response (increase of more than 30,000/μL)” value ([3]; of nine evaluable patients) was “one”. For the same compound, the “erythropoietic and cytogenetic remitting activity” value ([3]; patients with low/intermediate-1 risk MDS) was “remarkable erythropoietic and cytogenetic remitting activity”, the “normalization of blast percentage” value ([3]; responders) was 1 patient and the “patients with hematologic benefit” value ([3]; six of nine evaluable patients, oral 25 mg daily, reduced to 10 mg, IWG criteria) was 66%. The “IC50 for inhibiting production of TNF-α following LPS-stimulation of human whole blood” value [4] was roughly 0.1036 µg/mL, the IC50 ([4]; human whole blood, LPS, read-out: IC50 for inhibiting production of TNF-α following LPS-stimulation of human whole blood) was roughly 0.48 µM and the “MDS vs normal bone marrow progenitor formation” value [5] was “selectively suppresses”. The “mitogenic response to VEGF” value [6] was “abrogates mitogenic response to VEGF”, the IC50 [1] was roughly 0.1 µM and the “IC50 for inhibiting production of TNF-α following LPS-stimulation of PBMC” value [1] was roughly 0.0259 µg/mL.

In the case of “recombinant human EPO: recombinant human erythropoietin (EPO), hematopoietic growth factor”, the “patients with sustained improvement in hemoglobin or decrease in transfusion requirement” value [7] is listed as “less than 25%”.
